These results are taken from patent US7820078B2, “Layer configuration with improved stability to sunlight exposure” (Agfa Graphics, N.V., priority 2007, dated 2010).

For data set [1] the following is noted: cited from earlier work.

A word on the melting point: it is the temperature, or range, at which the solid turns liquid. Consider `Oc1ccc2ccccc2c1O`, for which the melting point was 101 to 103 °C.

As a reminder, the pKa is the pH at which an ionisable group is half protonated. On to `CC(C)N` [isopropylamine], for which the pKa in data set [1] is 10.63.

As to `Sc1nnnn1-c1ccccc1` [1-phenyl-5-mercaptotetrazole], the pKa in data set [1] was 2.30.

With `Cc1nc2ccccc2[nH]1` [2-methylbenzimidazole], the pKa in data set [1] was 6.96.

With `c1cn[nH]c1` [pyrazole], the pKa in data set [1] is on record as 2.53.

For `c1ccc2cnccc2c1` [isoquinoline], the pKa in data set [1] is 5.2.
